Measurements reported in US20260297070A1, “CYCLIC [COMPOUND LEFT OUT] WRN INHIBITORS” (Nimbus Wadjet, Inc., priority 2023, published 2026).

Each compound was assayed against T1, human Werner helicase (WRN-BV08, Uniprot Q14191, amino acids 517-1235 with L1074F point mutation) (Homo sapiens, UniProt Q14191, L1074F) (assay: WRN (BV08) ADP-Glo Assay). Settings: 0.15 nM WRN, 5 μM ATP, 0.1 nM DNA duplex, 15 min preincubation, 60 min at 25° C., pH 7.5, 1% DMSO; read-out: ADP-Glo_hWRN_IC50.
T1 construct: Uniprot Q14191, amino acids 517-1235 with L1074F point mutation; TEV-cleavable 8×His (C, cleaved yes); made in house; host or cells: Sf9 insect cells (baculovirus)
T1 sequence (Q14191 with tags, fused parts or gaps L1074F limits assumed): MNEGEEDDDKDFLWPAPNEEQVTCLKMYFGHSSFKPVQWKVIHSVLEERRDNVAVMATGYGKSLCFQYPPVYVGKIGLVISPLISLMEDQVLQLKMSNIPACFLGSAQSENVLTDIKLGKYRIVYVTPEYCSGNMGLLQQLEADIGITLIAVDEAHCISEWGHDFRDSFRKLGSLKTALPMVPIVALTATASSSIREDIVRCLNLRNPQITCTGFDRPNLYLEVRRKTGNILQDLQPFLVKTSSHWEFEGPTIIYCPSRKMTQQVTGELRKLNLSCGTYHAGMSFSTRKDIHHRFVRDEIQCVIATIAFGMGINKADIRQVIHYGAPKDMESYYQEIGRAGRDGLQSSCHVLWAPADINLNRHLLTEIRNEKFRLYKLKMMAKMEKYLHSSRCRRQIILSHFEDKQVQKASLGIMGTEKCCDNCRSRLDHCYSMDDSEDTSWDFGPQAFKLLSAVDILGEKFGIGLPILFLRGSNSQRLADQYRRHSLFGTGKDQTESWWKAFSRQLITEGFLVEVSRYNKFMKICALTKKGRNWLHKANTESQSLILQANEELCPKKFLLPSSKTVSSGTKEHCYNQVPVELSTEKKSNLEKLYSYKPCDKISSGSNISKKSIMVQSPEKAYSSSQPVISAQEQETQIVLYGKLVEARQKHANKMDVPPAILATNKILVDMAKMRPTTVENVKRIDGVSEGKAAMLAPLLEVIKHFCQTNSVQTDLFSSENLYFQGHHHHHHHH
Type: biochemical
Procedure, shortened: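 Untagged WRN (Sf9-expressed, TEV-cleaved) at 0.15 nM was preincubated 15 min at 25 °C with compound, then reacted 60 min at 25 °C with 5 μM ATP and 0.1 nM DNA duplex in Bicine pH 7.5, 1 mM MgCl2. ADP-Glo luminescence gave % inhibition; IC50 by four-parameter fit.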

Compared with `COc1cc(C(C)N(C(=O)Cn2cc(-c3cc(F)c(F)c(F)c3)cn2)C2C=CS(=O)(=O)C2)ccn1` (single isomer, unassigned) [I-828, N-[(3R**)-1,1-dioxo-2,3-dihydro-1lambda6-thiophen-3-yl]-N-[(1R*)-1-(2-methoxypyridin-4-yl)ethyl]-2-[4-(3,4,5-trifluorophenyl)-1H-pyrazol-1-yl]acetamide], `CC(C)(O)c1cc(CN(C(=O)Cn2cc(-c3ccc(F)c(F)c3)cn2)[C@@H]2C=CS(=O)(=O)C2)ccn1` [I-6, (R)-2-(4-(3,4-difluorophenyl)-1H-pyrazol-1-yl)-N-(1,1-dioxido-2,3-dihydrothiophen-3-yl)-N-((2-(2-hydroxypropan-2-yl)pyridin-4-yl)methyl)acetamide] is lower in IC50: 500 to 5000 nM for the first, less than 500 nM for the second. The second is the more potent here.

First: COc1cc(C(C)N(C(=O)Cn2cc(-c3cc(F)c(F)c(F)c3)cn2)C2C=CS(=O)(=O)C2)ccn1 (single isomer, unassigned) [I-830, N-[(3R**)-1,1-dioxo-2,3-dihydro-1lambda6-thiophen-3-yl]-N-[(1R*)-1-(2-methoxypyridin-4-yl)ethyl]-2-[4-(3,4,5-trifluorophenyl)-1H-pyrazol-1-yl]acetamide]
Second: CC(C)(O)c1cc(CN(C(=O)Cc2ccc(-c3cc(F)c(F)c(F)c3)cc2F)C2C=CS(=O)(=O)C2)ccn1 (stereo not drawn) [I-19, N-(1,1-dioxo-2,3-dihydro-1lambda6-thiophen-3-yl)-N-{[2-(2-hydroxypropan-2-yl)pyridin-4-yl]methyl}-2-{3,3′,4′,5′-tetrafluoro-[1,1′-biphenyl]-4-yl}acetamide]
The IC50 of the first is higher: 5000 to 10000 nM for the first, less than 500 nM for the second. The second is the more potent here.

First: COc1cc(C(C)N(C(=O)Cn2cc(-c3cc(F)c(F)c(F)c3)cn2)C2C=CS(=O)(=O)C2)ccn1 (single isomer, unassigned) [I-831, N-[(3R**)-1,1-dioxo-2,3-dihydro-1lambda6-thiophen-3-yl]-N-[(1R*)-1-(2-methoxypyridin-4-yl)ethyl]-2-[4-(3,4,5-trifluorophenyl)-1H-pyrazol-1-yl]acetamide]
Second: CC(C)(O)c1cc(CN(C(=O)Cn2cc(-c3ccc(F)cc3)cn2)[C@@H]2C=CS(=O)(=O)C2)ccn1 [I-15, N-[(3R)-1,1-dioxo-2,3-dihydro-1lambda6-thiophen-3-yl]-2-[4-(4-fluorophenyl)-1H-pyrazol-1-yl]-N-{[2-(2-hydroxypropan-2-yl)pyridin-4-yl]methyl}acetamide]
The IC50 of the first is higher: 500 to 5000 nM for the first, less than 500 nM for the second. The second is the more potent here.

Compared with `COc1cc(CN(C(=O)C(OC2CS(=O)(=O)C2)c2ccc(-c3ccc(F)c(F)c3)cc2F)[C@@H]2C=CS(=O)(=O)C2)ccn1` (single isomer, unassigned) [I-834, (2R*)-2-[(1,1-dioxo-1lambda6-thietan-3-yl)oxy]-N-[(3R)-1,1-dioxo-2,3-dihydro-1lambda6-thiophen-3-yl]-N-[(2-methoxypyridin-4-yl)methyl]-2-{3,3′,4′-trifluoro-[1,1′-biphenyl]-4-yl}acetamide], `COC(C(=O)N(Cc1ccnc(C(C)(C)O)c1)C1C=CS(=O)(=O)C1)c1ccc(-c2ccc(F)c(F)c2)cc1F` (stereo not drawn) [I-18, N-(1,1-dioxo-2,3-dihydro-1lambda6-thiophen-3-yl)-N-{[2-(2-hydroxypropan-2-yl)pyridin-4-yl]methyl}-2-methoxy-2-{3,3′,4′-trifluoro-[1,1′-biphenyl]-4-yl}acetamide] is lower in IC50: greater than 50000 nM for the first, less than 500 nM for the second. The second is the more potent here.

First: COc1cc(CN(C(=O)C(OC2CS(=O)(=O)C2)c2ccc(-c3ccc(F)c(F)c3)cc2F)[C@@H]2C=CS(=O)(=O)C2)ccn1 (single isomer, unassigned) [I-835, (2R*)-2-[(1,1-dioxo-1lambda6-thietan-3-yl)oxy]-N-[(3R)-1,1-dioxo-2,3-dihydro-1lambda6-thiophen-3-yl]-N-[(2-methoxypyridin-4-yl)methyl]-2-{3,3′,4′-trifluoro-[1,1′-biphenyl]-4-yl}acetamide]
Second: CC(C)(O)c1cc(CN(C(=O)C(OCC2CC(F)(F)C2)c2ccc(-c3ccc(F)c(F)c3)cc2F)[C@@H]2C=CS(=O)(=O)C2)ccn1 (stereo in doubt) [I-792, rel-2-[(3,3-difluorocyclobutyl)methoxy]-N-[(3R)-1,1-dioxo-2,3-dihydro-1lambda6-thiophen-3-yl]-N-{[2-(2-hydroxypropan-2-yl)pyridin-4-yl]methyl}-2-{3,3′,4′-trifluoro-[1,1′-biphenyl]-4-yl}acetamide]
The IC50 of the first is higher: 5000 to 10000 nM for the first, 500 to 5000 nM for the second. The second is the more potent here.

First: Cc1cccn1-c1ccc(CC(=O)N(Cc2ccc(C(=O)N(C)Cc3cn(Cc4ccc(NC(=O)CCOCCOCCOCCOCCNC(=O)CCCC[C@@H]5SC[C@@H]6NC(=O)N[C@@H]65)cn4)nn3)cc2)C2C=CS(=O)(=O)C2)c(F)c1 (single isomer, unassigned) [II-1]
Second: CC(C)(O)c1cc(CN(C(=O)Cn2ccc(-c3ccc(F)c(F)c3)cc2=O)[C@@H]2C=CS(=O)(=O)C2)ccn1 [I-13, (R)-2-(4-(3,4-difluorophenyl)-2-oxopyridin-1(2H)-yl)-N-(1,1-dioxido-2,3-dihydrothiophen-3-yl)-N-((2-(2-hydroxypropan-2-yl)pyridin-4-yl)methyl)acetamide]
The IC50 of the first is higher: 500 to 5000 nM for the first, less than 500 nM for the second. The second is the more potent here.

`CNC(=O)C(C(=O)N(Cc1ccnc(C(C)(C)O)c1)[C@@H]1C=CS(=O)(=O)C1)c1ccc(-c2ccc(F)c(F)c2)cc1F` (stereo partly drawn) [I-3, N1-(1,1-dioxido-2,3-dihydrothiophen-3-yl)-N1-((2-(2-hydroxypropan-2-yl)pyridin-4-yl)methyl)-N3-methyl-2-(3,3′,4′-trifluoro-[1,1′-biphenyl]-4-yl)malonamide] and `COc1cc(CN(C(=O)[C@H](C(=O)N(C)C)c2ccc(-c3ccc(F)cc3)cc2F)[C@@H]2C=CS(=O)(=O)C2)ccn1` [I-9, (2S)-2-{3,4′-difluoro-[1,1′-biphenyl]-4-yl}-N-[(3R)-1,1-dioxo-2,3-dihydro-1lambda6-thiophen-3-yl]-N-[(2-methoxypyridin-4-yl)methyl]-N′,N′-dimethylpropanediamide] cannot be ordered by IC50: less than 500 nM for the first, less than 500 nM for the second.

`CC(C)(O)c1cc(CN(C(=O)Cn2cc3cc(S(F)(F)(F)(F)F)ccc3n2)[C@@H]2C=CS(=O)(=O)C2)ccn1` [I-7, (R)—N-(1,1-dioxido-2,3-dihydrothiophen-3-yl)-N-((2-(2-hydroxypropan-2-yl)pyridin-4-yl)methyl)-2-(5-(pentafluoro-λ^6-sulfaneyl)-2H-indazol-2-yl)acetamide] and `CC(C)(O)c1cc(CN(C(=O)Cc2ccc(S(F)(F)(F)(F)F)cc2)[C@@H]2C=CS(=O)(=O)C2)ccn1` [I-16, (R)—N-(1,1-dioxido-2,3-dihydrothiophen-3-yl)-N-((2-(2-hydroxypropan-2-yl)pyridin-4-yl)methyl)-2-(4-(pentafluoro-λ^6-sulfaneyl)phenyl)acetamide] cannot be ordered by IC50: less than 500 nM for the first, less than 500 nM for the second.

`O=C(Cc1ccc(S(F)(F)(F)(F)F)cc1)N(Cc1nc(C2CCC2)cs1)C1C=CS(=O)(=O)C1` (stereo not drawn) [I-14, N-[(4-cyclobutyl-1,3-thiazol-2-yl)methyl]-N-(1,1-dioxo-2,3-dihydro-1lambda6-thiophen-3-yl)-2-[4-(pentafluoro-lambda6-sulfanyl)phenyl]acetamide] and `COc1cc(CN(C(=O)Cc2ccc(S(F)(F)(F)(F)F)cc2)[C@@H]2C=CS(=O)(=O)C2)ccn1` [I-17, N-[(3R)-1,1-dioxo-2,3-dihydro-1lambda6-thiophen-3-yl]-N-[(2-methoxypyridin-4-yl)methyl]-2-[4-(pentafluoro-lambda6-sulfanyl)phenyl]acetamide] cannot be ordered by IC50: less than 500 nM for the first, less than 500 nM for the second.
